From patent publication US12378189B2, “Multi-aziridine compound” (priority 2020, dated 2025) come the findings set out here.

Data set [1] concerns Bscl2-GFP and Rtkn-GFP reporters in mouse embryonic stem (mES) cells. The data set is described as follows: ToxTracker genotoxicity assay, overall conclusion from Bscl2-GFP and Rtkn-GFP. Conditions: positive: >= 2-fold induction at one of 10, 25, 50% cytotoxicity, with or without S9; not genotoxic: <= […] at all. On the procedure:
This methodology uses a two step-approach.
Metabolic was evaluated by addition of S9 liver extract. […] Only GFP expression in intact single cells is determined.

Data set [2] concerns Rtkn-GFP reporter in mouse embryonic stem (mES) cells. Description: ToxTracker genotoxicity assay, Rtkn-GFP reporter induction.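 Note: GFP reporter signal quantified solely in intact single cells.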
Procedure: (§1) The genotoxicity can be measured by the ToxTracker® assay (Toxys, Leiden, the Netherlands) as further described herein.
(§2) Genotoxicity of examples and comparatives was evaluated by the ToxTracker® assay (Toxys, Leiden, the Netherlands). The ToxTracker assay is a panel of several validated Green Fluorescent Protein (GFP)-based mouse embryonic stem (mES) reporter cell lines that can be used to identify the biological reactivity and potential carcinogenic properties of newly developed compounds in a single test. This methodology uses a two step-approach.
(§3) In the first step a dose range finding was performed using wild-type mES cells (strain B4418). 20 different concentrations for each compound was tested, starting at 10 mM in DMSO as highest concentration and nineteen consecutive 2-fold dilutions.
(§4) Genotoxicity was evaluated at 10, 25 and 50% cytotoxicity in absence and presence of rat S9 liver extract-based metabolizing systems (aroclor1254-induced rats, Moltox, Boone, NC, USA). The independent cell lines were seeded in 96-well cell culture plates, 24 h after seeding the cells in the 96-well plates, fresh ES cell medium containing the diluted test substance was added to the cells. For each tested compound, five concentrations are tested in 2-fold dilutions. The highest sample concentration will induce significant cytotoxicity (50-70%). In case of no or low cytotoxicity, 10 mM or the maximum soluble mixture concentration is used as maximum test concentration. Cytotoxicity is determined by cell count after 24 h exposure using a Guava easyCyte 10HT flow cytometer (Millipore).
(§5) GFP reporter induction is always compared to a vehicle control treatment.
(§6) All compounds were tested in at least three completely independent repeat experiments. Positive reference treatment with cisplatin (DNA damage) were included in all experiments. Metabolic was evaluated by addition of S9 liver extract. Cells are exposed to five concentrations of the test compound in the presence of S9 and required co-factors (RegenSysA+B, Moltox, Boone, NC, USA) for 3 h. After washing, cells are incubated for 24 h in fresh ES cell medium. Induction of the GFP reporters is determined after 24 h exposure using a Guava easyCyte 10HT flow cytometer (Millipore). Only GFP expression in intact single cells is determined. Mean GFP fluorescence and cell concentrations in each well is measured, which is used for cytotoxicity assessment. Data was analyzed using ToxPlot software (Toxys, Leiden, the Netherlands). The induction levels reported are at compound concentrations that induce 10%, 25% and 50% cytotoxicity after 3 h exposure in the presence of S9 rat liver extract and 24 h recovery or alternatively after 24 h exposure when not in the presence of S9 rat liver extract.
Data set [3] relates to Bscl2-GFP reporter in mouse embryonic stem (mES) cells. Description: ToxTracker genotoxicity assay, Bscl2-GFP reporter induction.
Procedure: as §1, §2, §3, §4, §5, §6
The mark [4] stands for this setting: with S9 rat liver extract, concentration inducing 10% cytotoxicity, 3 h exposure, 24 h recovery.
[5] abbreviates: with S9 rat liver extract, concentration inducing 25% cytotoxicity, 3 h exposure, 24 h recovery.
The mark [6] stands for this setting: with S9 rat liver extract, concentration inducing 50% cytotoxicity, 3 h exposure, 24 h recovery.
Where [7] appears, read: without S9 rat liver extract, concentration inducing 10% cytotoxicity, 24 h exposure.
Where [8] appears, read: without S9 rat liver extract, concentration inducing 25% cytotoxicity, 24 h exposure.
Setting [9] is: without S9 rat liver extract, concentration inducing 50% cytotoxicity, 24 h exposure.

Turning to `O=C(CCN1CC1)OCC(CO)(COC(=O)CCN1CC1)COC(=O)CCN1CC1` [Comp Ex 5, pentaerythritol tris(3-(1-aziridinyl)propionate)], the “Genotoxicity test result (conclusion)” value in data set [1] was “genotoxic”.

For `CCCCOCC(CN1CC1)OC(=O)NC1CCC(CC2CCC(NC(=O)OC(COCCCC)CN3CC3)CC2)CC1` (stereo not shown) [Comp. Ex 4], the “Genotoxicity test result (conclusion)” value in data set [1] is listed as “genotoxic”. Further, the Rtkn induction level in data set [2] (setting [4]) stood at 1.1 fold; in data set [2] (setting [5]), 1.6 fold; in data set [2] (setting [6]), 1.9 fold; in data set [2] (setting [7]), 1.2 fold; in data set [2] (setting [8]), 1.5 fold; in data set [2] (setting [9]), 2.1 fold.

For `O=C(NCCCCCCn1c(=O)n(CCCCCCNC(=O)OCCN2CC2)c(=O)n(CCCCCCNC(=O)OCCN2CC2)c1=O)OCCN1CC1` [Comp. Ex. 2], in data set [1], the “Genotoxicity test result (conclusion)” value is listed as “genotoxic”. In addition, the Rtkn induction level in data set [2] (setting [4]) is given as 2.0 fold; in data set [2] (setting [5]), 3.4 fold; in data set [2] (setting [6]), 3.0 fold; in data set [2] (setting [7]), 1.7 fold; in data set [2] (setting [8]) it was 2.4 fold; in data set [2] (setting [9]) it was 2.8 fold.

Turning to `CC(CN1CC1)OC(=O)NCCCCCCn1c(=O)n(CCCCCCNC(=O)OC(C)CN2CC2)c(=O)n(CCCCCCNC(=O)OC(C)CN2CC2)c1=O` (stereo not shown) [Comp. Ex. 3], in data set [1], the “Genotoxicity test result (conclusion)” value is recorded as “genotoxic”. In addition, the Rtkn induction level in data set [2] (setting [4]) came to 1.3 fold; in data set [2] (setting [5]), 2.1 fold; in data set [2] (setting [6]), 2.2 fold; in data set [2] (setting [7]), 1.3 fold; in data set [2] (setting [8]), 1.8 fold; in data set [2] (setting [9]), 1.9 fold.

For `CCCCOCC(CN1CC1)OC(=O)NCCCCCCn1c(=O)n(CCCCCCNC(=O)OC(COCCCC)CN2CC2)c(=O)n(CCCCCCNC(=O)OC(COCCCC)CN2CC2)c1=O` (stereo not shown) [Ex. 1], the “Genotoxicity test result (conclusion)” value in data set [1] was “non-genotoxic”. Moreover, the Rtkn induction level is 1.0 fold in data set [2] (setting [4]); 1.1 fold in data set [2] (setting [5]); 1.1 fold in data set [2] (setting [6]); 1.0 fold in data set [2] (setting [7]); 1.0 fold in data set [2] (setting [8]); 0.9 fold in data set [2] (setting [9]).

Consider `CCCCCCCCCC(=O)OCC(CN1CC1)OC(=O)NCCCCCCn1c(=O)n(CCCCCCNC(=O)OC(COC(=O)CCCCCCCCC)CN2CC2)c(=O)n(CCCCCCNC(=O)OC(COC(=O)CCCCCCCCC)CN2CC2)c1=O` (stereo not shown) [Ex. 3], for which, in data set [1], the “Genotoxicity test result (conclusion)” value was “non-genotoxic”. Besides, the “Bscl 2 induction level” value was 1.1 fold in data set [3] (setting [4]); 1.2 fold in data set [3] (setting [5]); 1.2 fold in data set [3] (setting [6]); 1.1 fold in data set [3] (setting [7]); 1.2 fold in data set [3] (setting [8]); 1.4 fold in data set [3] (setting [9]). The Rtkn induction level is recorded as 1.3 fold in data set [2] (setting [4]); 1.5 fold in data set [2] (setting [5]); 1.5 fold in data set [2] (setting [6]); 1.3 fold in data set [2] (setting [7]); 1.5 fold in data set [2] (setting [8]); 1.5 fold in data set [2] (setting [9]).

Turning to `CCCCOCC(CN1CC1)OC(=O)NCCCCCC/N=c1\oc(=O)n(CCCCCCNC(=O)OC(COCCCC)CN2CC2)c(=O)n1CCCCCCNC(=O)OC(COCCCC)CN1CC1` (stereo not shown) [Ex. 5], in data set [1], the “Genotoxicity test result (conclusion)” value is reported as “non-genotoxic”. The Rtkn induction level in data set [2] (setting [4]) is on record as 1.0 fold; in data set [2] (setting [5]), 0.9 fold; in data set [2] (setting [6]), 1.0 fold; in data set [2] (setting [7]), 1.0 fold; in data set [2] (setting [8]), 1.1 fold; in data set [2] (setting [9]) it was 1.0 fold.
